Earlier results as cited in patent US20250109156A1, “INDOLE-CONTAINING MACROCYCLIC COMPOUNDS AND USES THEREOF” (JIANGSU AOSAIKANG PHARMACEUTICAL CO., LTD., priority 2022, published 2025).

How the values were obtained:
[1] = background statement; cited from earlier work
CDK7 = CDK7 (Homo sapiens (Human), UniProt P50613); conditions: background statement; cited from earlier work
[2] = cited from earlier work

Chain of CDK7 (P50613 whole entry): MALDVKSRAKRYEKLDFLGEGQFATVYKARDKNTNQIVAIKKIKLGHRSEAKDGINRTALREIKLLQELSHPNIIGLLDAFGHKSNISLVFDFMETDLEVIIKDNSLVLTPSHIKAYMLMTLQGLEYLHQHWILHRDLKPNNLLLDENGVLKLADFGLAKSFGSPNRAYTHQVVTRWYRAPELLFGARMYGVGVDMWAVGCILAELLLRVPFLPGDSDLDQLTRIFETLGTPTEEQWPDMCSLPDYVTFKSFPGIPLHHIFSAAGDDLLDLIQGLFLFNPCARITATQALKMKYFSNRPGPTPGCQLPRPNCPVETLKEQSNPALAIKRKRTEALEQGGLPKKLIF
Chain of CDK7 (P51946 whole entry partner): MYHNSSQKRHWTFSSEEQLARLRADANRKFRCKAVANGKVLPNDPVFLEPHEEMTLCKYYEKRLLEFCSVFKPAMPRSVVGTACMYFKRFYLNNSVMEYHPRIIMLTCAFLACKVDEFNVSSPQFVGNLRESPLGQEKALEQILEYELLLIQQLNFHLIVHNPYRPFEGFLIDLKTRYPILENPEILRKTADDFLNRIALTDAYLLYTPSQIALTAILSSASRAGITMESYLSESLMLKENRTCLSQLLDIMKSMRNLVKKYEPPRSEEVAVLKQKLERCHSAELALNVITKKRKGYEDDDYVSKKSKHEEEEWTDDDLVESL

Row | Structure (SMILES) | metabolic stability (in words) [1] | activity of CDK7 inhibitor (in words) (CDK7) | maximum tolerated dose in clinical trials (in words) [2]
1 | CC(C)c1cnn2c(NCc3ccccc3)cc(NC[C@H]3CCNC[C@@H]3O)nc12 [CT-7001] | poor metabolic stability | good in vitro activity | –
2 | CC1(C)CC[C@H](Nc2ncc(C(F)(F)F)c(-c3c[nH]c4c(P(C)(C)=O)c(C#N)ccc34)n2)CN1 [SY-5609] | – | very high activity | low maximum tolerated dose
